Measurements reported in article PMC10819767, “An ADAM10 Exosite Inhibitor Is Efficacious in an In Vivo Collagen-Induced Arthritis Model” (Pharmaceuticals, 2024).

Key:
[1] = system: IL-6; assay: RA serum marker ELISA, IL-6, CIA mice; assay type: in vivo, C57 BL/6 mice
Procedure: (§1) The sample size for therapeutic evaluation was calculated using power analysis based on experimental data from similar studies. In a two-sided test and setting the α value at 0.05 and desired power at 0.95, the sample size turned out to be 5 per group. We also expected deaths during the experiments; therefore, we used the formula Nt = N/1-q, where Nt is the number of mice initially used, N is the number required at the end of the study, and q is the proportion of attrition, which is generally 10%. Thus, at the end of the study period, we expected to have data from at least 6 mice per group, which is enough to attain statistical significance if it exists. Data were analyzed using a one-way ANOVA followed by Dunnett’s test compared with the vehicle control. At the end of the study, the mice were anesthetized and sacrificed using CO2 euthanasia. The hind paws of the mice were subjected to a histopathological examination, and the serum was analyzed for CRP, TNF-α, IL-6, and IL-10, as described in the below sections.
(§2) RA serum marker analysis. Blood was collected from the tail vein, and 100 µL was used for the assays. All assays were conducted using the manufacturer’s instructions for the respective assay kits. The following assay kits were purchased: Mouse TNF-α GENLISA™ ELISA (Krishgen BioSystems cat#KB2145, Mumbai, India), Mouse IL-10 GENLISA™ ELISA (Krishgen BioSystems cat#KB2072), Mouse hsC-Reactive Protein, hs-CRP GENLISA™ ELISA (Krishgen BioSystems cat#KLM0318), Mouse IL-6 GENLISA™ ELISA (Krishgen BioSystems cat#KB2068).

[2] = system: muscarinic (CHRM1); design: method as in PMID 34817776; details: cited from earlier work
[3] = system: cardiac ion channel hERG; design: method as in PubChem AID 1511; details: ref PubChem AID 1511, cited from earlier work
[4] = system: collagen-induced arthritis (CIA) model; assay: CIA mouse model: clinical arthritis score and paw swelling; assay type: in vivo, C57 BL/6 mice; details: 10, 30, 50 mg/kg/day; days 1, 14, 21, 28
[5] = system: caspase 8; design: method as in PubChem database; details: ref PubChem database; cited from earlier work
[6] = target: DNA polymerase β; design: method as in PubChem AID 485314; details: ref PubChem AID 485314; cited from earlier work
[7] = system: TNFα; assay: RA serum marker ELISA, TNFα, CIA mice; assay type: in vivo, C57 BL/6 mice
Procedure: as §1, §2

[8] = target: T1, ADAM17 (Homo sapiens, UniProt P78536); assay: ADAM17 enzyme assay with glycosylated substrate DM2; assay type: biochemical
T1 construct: purchased R & D Systems (Minneapolis, MN, USA)
Procedure: ADAM10 and ADAM17 assays. Both assays were performed as published previously by us. Briefly, both assays followed the same general protocol. In total, 5 μL of the 2× enzyme solution (20 nM) in an assay buffer (10 mM Hepes, 0.001% Brij-35, pH 7.5) were added to solid bottom black 384 plates (Nunc, ThermoFisher, Waltham, MA, USA, cat# 264705). Next, test compounds and pharmacological controls were added to the corresponding wells using a 384-pin tool device (V & P Scientific, San Diego, CA, USA). After 60 min of incubation at RT, the reactions were started via the addition of 5 μL of the 2× solutions of glycosylated substrate DM2 (20 μM). The reactions were incubated at RT for 2 h, after which the fluorescence was measured using a Biotek H1 multimode microplate imager (λexcitation = 360 nm, λemission = 460 nm). IC50 values were calculated by fitting normalized data to the sigmoidal log vs. the response equation utilizing a non-linear regression analysis from GraphPad Prizm 9.

[9] = system: adrenergic (ADRB2); design: method as in PMID 34817776; details: cited from earlier work
[10] = system: PBMCs and neutrophils; design: method as in PMID 28442704; details: cited from earlier work
[11] = system: C-reactive protein (CRP); assay: RA serum marker ELISA, CRP, CIA mice; assay type: in vivo, C57 BL/6 mice
Procedure: as §1, §2

[12] = system: OPRM1; design: method as in PMID 34817776; details: cited from earlier work
[13] = Body weight and clinical signs of distress during CIA study; assay type: in vivo; details: 10, 30, 50 mg/kg oral for 28 days
From the text: Mice were weighed and observed every day, and notes were made on the signs of distress.

[14] = system: T-cell receptors; design: method as in PubChem bioassay 504894; details: ref PubChem bioassay 504894; cited from earlier work
[15] = CID 3117694 50 mg/kg/day, indomethacin 2.5 mg/kg
[16] = all tested doses (10, 30, 50 mg/kg), vs vehicle control

T1 sequence (P78536 215-824, species assumed): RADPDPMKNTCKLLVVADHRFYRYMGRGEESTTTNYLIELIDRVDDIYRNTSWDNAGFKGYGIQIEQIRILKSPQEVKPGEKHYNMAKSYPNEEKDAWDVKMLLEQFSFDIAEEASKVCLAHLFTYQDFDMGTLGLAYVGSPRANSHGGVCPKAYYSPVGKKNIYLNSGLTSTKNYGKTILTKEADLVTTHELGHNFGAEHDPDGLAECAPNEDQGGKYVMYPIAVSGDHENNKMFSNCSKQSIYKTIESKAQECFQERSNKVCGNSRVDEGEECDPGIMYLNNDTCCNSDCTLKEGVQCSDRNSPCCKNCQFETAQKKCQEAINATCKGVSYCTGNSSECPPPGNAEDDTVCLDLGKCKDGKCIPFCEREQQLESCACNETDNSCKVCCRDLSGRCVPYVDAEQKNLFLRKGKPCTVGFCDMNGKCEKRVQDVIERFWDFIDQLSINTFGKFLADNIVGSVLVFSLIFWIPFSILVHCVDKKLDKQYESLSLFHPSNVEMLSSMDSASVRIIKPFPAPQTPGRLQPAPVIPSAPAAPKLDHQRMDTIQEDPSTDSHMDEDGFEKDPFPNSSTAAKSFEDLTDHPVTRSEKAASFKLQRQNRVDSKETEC

COc1cccc(C(=O)NNC(=O)C(=O)Nc2ccc(C)c(Cl)c2)c1 [CID 3117694]
IL-6 blood level vs healthy control [1, 15]: decreased the markers to the level of the healthy control
concentration of IL-6 in the blood of arthritic mice [1, 16]: lowers
activity against CHRM1 [2]: inactive
effect on hERG with pro-arrhythmic agents (in words) ([3]; no EC50 value reported): cardioprotective
hERG inhibition (in words) [3]: not an hERG inhibitor
paw swelling (in words) [4]: time- and dose-dependently decrease paw swelling
effect on caspase 8 activity [5]: does not affect
IC50 [6]: 79 µM
TNFα blood level vs healthy control [7, 15]: decreased the markers to the level of the healthy control
concentration of TNFα in the blood of arthritic mice [7, 16]: lowers
IC50 [8]: > 100 µM
activity against ADRB2 [9]: inactive
recruitment of PBMCs and neutrophils [10]: can inhibit
concentration of CRP in the blood of arthritic mice ([11]; 30 and 50 mg/kg, vs vehicle control): lowers
CRP blood level vs healthy control [11, 15]: decreased the markers to the level of the healthy control
activity against OPRM1 [12]: inactive
body weight vs vehicle control [13]: no significant differences in body weight
clinical signs of distress [13]: no clinical signs of distress
activity in assay for activators of T-cell receptors [14]: inactivity
